According to ChEMBL document CHEMBL4627374, “Psathyrins: Antibacterial Diterpenoids from Psathyrella candolleana” (2020):
≈ marks a conversion by molar mass, not a printed value.

Tests used:
Assay type in all cases: functional
[1] = test system: Salmonella enterica subsp. enterica; experiment: Antibacterial activity against Salmonella enterica subsp. enterica ATCC 14028 incubated for 24 hrs by photometry; conditions: ATCC 14028, 24 h
Pseudomonas aeruginosa = experiment: Antibacterial activity against Pseudomonas aeruginosa ATCC 27853 incubated for 24 hrs by photometry; conditions: ATCC 27853, 24 h
Staphylococcus aureus = experiment: Antibacterial activity against Staphylococcus aureus subsp. aureus ATCC 29213 incubated for 24 hrs by photometry; conditions: ATCC 29213, 24 h

Row | Structure (SMILES) | MIC50 [1] [µg/mL] | MIC50 (Pseudomonas aeruginosa) [µg/mL] | MIC50 (Staphylococcus aureus) [µg/mL]
1 | CC(C)[C@H]1CC(=O)[C@]23[C@@H]4C=C(CO)C[C@@H](O)[C@@H]4[C@@]2(C)CC[C@]13C | 77.9 (≈ 245 µM) | > 128 | 14.3 (≈ 44.9 µM)
2 | C[C@H](CO)[C@H]1CC(=O)C23[C@@H]4C=C(CO)CC[C@@H]4[C@@]2(C)CC[C@]13C (some centres undefined) | 102 (≈ 319 µM) | > 128 | 22.7 (≈ 71.3 µM)
3 | CC(C)(O/N=C(\C(=O)N[C@@H]1C(=O)N2C(C(=O)[O-])=C(C[n+]3ccccc3)CS[C@H]12)c1csc(N)n1)C(=O)O [CEFTAZIDIME] | – | 0.08 (≈ 0.146 µM) | –
4 | CC1(C)S[C@@H]2[C@H](NC(=O)Cc3ccccc3)C(=O)N2C1C(=O)[O-].[Na+] (some centres undefined) | 1.32 | – | 0.81
